Results: the supplement of paper PMC12076712

What was measured:
Assay in all cases: pIC50, kinobeads binding competition
[1] = target: FRK (UniProt P42685); conditions: cell material: Lysate mix
Outline: (§1)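 Live Jurkat cells were treated with nine compound concentrations (top 30 μM, 1:4 steps) or DMSO for 60 min at 37 °C before lysis. Alternatively, Jurkat lysate or a 1:1:1:1 HEK293/K-562/HepG2/placenta lysate mix was incubated with nine concentrations (top 30 μM, 1:5 steps) for 60 min at 4 °C. Kinobeads-bound proteins were digested and quantified by TMT10 LC-MS/MS. pIC50 came from logistic dose-response fits (R drc package) of fold changes versus DMSO, in biological duplicates.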

[2] = target: T1, IRAK3 (UniProt Q9Y616); conditions: cell material: Lysate mix
T1 sequence (whole entry): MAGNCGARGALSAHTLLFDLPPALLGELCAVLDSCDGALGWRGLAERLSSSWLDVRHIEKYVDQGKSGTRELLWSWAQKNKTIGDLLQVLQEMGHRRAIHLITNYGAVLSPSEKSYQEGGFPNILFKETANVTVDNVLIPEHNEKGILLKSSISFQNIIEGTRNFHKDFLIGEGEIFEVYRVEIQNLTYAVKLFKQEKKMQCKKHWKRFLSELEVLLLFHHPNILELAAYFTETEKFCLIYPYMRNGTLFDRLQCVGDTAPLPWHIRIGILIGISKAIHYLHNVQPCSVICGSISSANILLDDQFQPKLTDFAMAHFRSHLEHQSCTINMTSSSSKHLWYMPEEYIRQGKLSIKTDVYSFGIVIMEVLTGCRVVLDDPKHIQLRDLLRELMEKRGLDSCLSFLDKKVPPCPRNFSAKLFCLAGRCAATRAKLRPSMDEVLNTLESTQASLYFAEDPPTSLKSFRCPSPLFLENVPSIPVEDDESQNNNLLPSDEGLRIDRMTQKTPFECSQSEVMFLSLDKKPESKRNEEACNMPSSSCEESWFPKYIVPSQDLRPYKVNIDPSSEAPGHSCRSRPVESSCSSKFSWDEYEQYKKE
Outline: as §1

[3] = target: UniProt P16234; conditions: cell material: Lysate mix
Outline: as §1

[4] = target: UniProt Q02779; conditions: cell material: Lysate mix
Outline: as §1

[5] = target: UniProt Q15303; conditions: cell material: Lysate mix
Outline: as §1

[6] = target: UniProt Q9Y2H1
Outline: as §1

[7] = target: PAK2 (UniProt Q13177)
Outline: as §1

[8] = target: T2, STRADA (UniProt Q7RTN6)
T2 sequence (whole entry): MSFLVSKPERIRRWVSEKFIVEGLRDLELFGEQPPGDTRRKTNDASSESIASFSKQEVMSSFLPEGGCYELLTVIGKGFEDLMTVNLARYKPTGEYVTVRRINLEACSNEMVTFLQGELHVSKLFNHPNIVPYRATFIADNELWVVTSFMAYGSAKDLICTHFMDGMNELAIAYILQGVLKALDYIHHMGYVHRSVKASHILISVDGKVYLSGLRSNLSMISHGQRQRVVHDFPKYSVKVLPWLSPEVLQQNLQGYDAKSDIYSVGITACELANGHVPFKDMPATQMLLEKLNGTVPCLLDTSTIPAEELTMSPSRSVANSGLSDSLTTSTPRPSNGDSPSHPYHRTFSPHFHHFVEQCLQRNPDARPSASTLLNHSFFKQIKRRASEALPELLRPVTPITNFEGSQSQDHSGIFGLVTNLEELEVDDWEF
Outline: as §1

[9] = target: UniProt Q02750
Outline: as §1

[10] = target: T3, UniProt Q99683
T3 sequence (whole entry): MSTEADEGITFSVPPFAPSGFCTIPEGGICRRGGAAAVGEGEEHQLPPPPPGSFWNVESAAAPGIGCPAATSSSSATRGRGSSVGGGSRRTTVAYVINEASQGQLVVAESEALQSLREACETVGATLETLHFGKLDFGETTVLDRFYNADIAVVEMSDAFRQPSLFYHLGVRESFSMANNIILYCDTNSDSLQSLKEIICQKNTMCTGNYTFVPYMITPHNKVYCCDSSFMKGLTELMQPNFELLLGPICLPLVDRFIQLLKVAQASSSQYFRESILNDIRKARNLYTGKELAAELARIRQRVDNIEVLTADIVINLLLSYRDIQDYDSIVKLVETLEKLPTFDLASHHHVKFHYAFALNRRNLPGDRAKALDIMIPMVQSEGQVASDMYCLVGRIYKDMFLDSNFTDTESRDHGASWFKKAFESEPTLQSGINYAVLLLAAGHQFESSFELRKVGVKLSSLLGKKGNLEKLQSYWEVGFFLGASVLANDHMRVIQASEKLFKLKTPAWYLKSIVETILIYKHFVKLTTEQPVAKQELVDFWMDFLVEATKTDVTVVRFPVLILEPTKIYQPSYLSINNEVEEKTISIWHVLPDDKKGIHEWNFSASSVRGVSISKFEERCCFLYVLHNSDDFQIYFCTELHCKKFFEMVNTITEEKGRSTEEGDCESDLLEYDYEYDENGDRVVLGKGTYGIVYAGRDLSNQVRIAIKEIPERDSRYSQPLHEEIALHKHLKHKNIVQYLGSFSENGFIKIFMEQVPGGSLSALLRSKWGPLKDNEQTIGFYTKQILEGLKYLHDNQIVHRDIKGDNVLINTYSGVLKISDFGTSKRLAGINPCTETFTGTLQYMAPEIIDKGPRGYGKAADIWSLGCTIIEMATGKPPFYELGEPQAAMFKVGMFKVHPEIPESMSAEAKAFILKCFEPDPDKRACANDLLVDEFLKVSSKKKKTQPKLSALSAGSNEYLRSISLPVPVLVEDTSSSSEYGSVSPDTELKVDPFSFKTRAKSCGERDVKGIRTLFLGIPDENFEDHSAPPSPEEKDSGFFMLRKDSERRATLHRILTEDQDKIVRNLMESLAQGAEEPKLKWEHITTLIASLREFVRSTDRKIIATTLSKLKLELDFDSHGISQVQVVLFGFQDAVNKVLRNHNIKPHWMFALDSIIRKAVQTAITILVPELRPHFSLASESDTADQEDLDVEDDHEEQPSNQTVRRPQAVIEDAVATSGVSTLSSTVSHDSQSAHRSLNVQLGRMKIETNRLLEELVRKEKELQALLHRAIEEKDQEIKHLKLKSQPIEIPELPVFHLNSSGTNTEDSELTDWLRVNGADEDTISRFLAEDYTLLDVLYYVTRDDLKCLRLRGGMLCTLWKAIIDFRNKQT
Outline: as §1

Sequence of PAK2 (Q13177 whole entry): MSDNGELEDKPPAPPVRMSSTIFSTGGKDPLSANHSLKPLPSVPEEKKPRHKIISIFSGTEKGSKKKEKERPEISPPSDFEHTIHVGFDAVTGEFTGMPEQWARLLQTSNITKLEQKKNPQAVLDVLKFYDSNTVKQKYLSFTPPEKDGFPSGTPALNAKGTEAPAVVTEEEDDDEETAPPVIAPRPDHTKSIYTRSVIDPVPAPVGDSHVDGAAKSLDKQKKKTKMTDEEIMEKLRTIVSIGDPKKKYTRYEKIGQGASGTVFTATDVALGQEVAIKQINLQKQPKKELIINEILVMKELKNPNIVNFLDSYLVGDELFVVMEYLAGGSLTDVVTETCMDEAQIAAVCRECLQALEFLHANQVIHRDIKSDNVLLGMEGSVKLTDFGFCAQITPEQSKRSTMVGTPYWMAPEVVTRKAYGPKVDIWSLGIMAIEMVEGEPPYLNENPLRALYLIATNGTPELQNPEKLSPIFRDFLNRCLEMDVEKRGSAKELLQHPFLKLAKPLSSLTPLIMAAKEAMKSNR
Sequence of UniProt P16234 (P16234 whole entry): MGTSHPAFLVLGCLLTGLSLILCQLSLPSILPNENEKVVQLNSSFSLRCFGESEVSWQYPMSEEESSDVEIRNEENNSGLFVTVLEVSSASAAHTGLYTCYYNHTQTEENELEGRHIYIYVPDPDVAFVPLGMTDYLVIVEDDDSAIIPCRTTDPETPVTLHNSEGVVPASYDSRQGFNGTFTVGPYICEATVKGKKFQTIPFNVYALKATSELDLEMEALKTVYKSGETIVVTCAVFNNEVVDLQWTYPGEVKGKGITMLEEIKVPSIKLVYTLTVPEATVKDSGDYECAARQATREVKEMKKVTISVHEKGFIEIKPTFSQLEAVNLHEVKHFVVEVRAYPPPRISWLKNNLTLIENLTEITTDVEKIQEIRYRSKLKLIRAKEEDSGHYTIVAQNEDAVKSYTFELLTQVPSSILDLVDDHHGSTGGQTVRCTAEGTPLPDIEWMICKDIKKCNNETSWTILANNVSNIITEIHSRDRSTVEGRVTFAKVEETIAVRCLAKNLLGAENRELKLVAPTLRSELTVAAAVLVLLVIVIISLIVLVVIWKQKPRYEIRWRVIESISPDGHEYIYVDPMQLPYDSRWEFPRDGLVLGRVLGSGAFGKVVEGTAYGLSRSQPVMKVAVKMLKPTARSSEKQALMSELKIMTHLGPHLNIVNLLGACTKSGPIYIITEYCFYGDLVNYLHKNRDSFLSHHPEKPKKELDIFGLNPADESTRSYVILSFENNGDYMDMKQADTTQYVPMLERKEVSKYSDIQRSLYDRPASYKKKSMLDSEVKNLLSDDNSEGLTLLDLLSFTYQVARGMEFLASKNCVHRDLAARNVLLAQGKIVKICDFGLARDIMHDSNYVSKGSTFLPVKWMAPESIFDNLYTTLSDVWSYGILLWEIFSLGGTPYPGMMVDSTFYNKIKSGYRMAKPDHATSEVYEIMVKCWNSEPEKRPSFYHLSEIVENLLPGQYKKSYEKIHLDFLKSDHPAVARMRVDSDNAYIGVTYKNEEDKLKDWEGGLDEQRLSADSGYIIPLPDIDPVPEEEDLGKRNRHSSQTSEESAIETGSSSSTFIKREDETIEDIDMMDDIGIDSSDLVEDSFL
Sequence of UniProt Q9Y2H1 (Q9Y2H1 whole entry, looked up): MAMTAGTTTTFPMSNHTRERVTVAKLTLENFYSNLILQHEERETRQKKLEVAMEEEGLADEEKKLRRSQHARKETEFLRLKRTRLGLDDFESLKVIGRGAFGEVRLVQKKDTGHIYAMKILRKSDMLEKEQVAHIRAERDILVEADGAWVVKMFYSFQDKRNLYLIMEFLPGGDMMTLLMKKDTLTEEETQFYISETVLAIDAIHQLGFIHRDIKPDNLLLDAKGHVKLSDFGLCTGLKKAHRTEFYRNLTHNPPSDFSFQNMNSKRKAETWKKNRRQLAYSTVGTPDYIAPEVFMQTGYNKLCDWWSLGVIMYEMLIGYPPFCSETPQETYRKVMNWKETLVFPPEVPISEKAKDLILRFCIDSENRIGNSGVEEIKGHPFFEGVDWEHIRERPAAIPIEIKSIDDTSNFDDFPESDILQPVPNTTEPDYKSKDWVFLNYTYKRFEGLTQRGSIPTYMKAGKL
Sequence of UniProt Q02779 (Q02779 whole entry, looked up): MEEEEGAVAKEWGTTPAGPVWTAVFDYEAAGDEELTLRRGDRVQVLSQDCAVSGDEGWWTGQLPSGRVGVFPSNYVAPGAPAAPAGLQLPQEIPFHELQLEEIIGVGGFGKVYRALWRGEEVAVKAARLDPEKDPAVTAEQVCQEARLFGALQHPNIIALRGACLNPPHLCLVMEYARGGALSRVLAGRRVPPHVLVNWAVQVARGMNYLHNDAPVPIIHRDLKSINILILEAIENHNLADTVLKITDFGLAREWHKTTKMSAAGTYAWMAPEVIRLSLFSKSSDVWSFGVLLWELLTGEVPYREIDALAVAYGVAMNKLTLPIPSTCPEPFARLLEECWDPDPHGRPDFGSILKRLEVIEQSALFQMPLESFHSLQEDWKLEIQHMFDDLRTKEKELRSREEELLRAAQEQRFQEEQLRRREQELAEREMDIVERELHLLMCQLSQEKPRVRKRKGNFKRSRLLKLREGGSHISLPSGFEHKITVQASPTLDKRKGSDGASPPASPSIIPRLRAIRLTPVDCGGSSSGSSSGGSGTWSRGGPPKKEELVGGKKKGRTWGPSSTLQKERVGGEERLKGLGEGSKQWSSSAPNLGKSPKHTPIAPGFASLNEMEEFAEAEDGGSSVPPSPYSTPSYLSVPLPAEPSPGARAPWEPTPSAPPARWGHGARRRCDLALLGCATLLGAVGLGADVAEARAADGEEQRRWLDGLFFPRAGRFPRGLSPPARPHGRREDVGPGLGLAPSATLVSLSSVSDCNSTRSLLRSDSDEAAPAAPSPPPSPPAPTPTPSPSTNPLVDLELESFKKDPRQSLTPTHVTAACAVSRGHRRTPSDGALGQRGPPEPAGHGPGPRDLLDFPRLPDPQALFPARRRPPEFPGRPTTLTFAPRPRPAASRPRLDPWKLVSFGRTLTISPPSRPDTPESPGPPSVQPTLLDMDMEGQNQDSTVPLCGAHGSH
Sequence of UniProt Q15303 (Q15303 whole entry): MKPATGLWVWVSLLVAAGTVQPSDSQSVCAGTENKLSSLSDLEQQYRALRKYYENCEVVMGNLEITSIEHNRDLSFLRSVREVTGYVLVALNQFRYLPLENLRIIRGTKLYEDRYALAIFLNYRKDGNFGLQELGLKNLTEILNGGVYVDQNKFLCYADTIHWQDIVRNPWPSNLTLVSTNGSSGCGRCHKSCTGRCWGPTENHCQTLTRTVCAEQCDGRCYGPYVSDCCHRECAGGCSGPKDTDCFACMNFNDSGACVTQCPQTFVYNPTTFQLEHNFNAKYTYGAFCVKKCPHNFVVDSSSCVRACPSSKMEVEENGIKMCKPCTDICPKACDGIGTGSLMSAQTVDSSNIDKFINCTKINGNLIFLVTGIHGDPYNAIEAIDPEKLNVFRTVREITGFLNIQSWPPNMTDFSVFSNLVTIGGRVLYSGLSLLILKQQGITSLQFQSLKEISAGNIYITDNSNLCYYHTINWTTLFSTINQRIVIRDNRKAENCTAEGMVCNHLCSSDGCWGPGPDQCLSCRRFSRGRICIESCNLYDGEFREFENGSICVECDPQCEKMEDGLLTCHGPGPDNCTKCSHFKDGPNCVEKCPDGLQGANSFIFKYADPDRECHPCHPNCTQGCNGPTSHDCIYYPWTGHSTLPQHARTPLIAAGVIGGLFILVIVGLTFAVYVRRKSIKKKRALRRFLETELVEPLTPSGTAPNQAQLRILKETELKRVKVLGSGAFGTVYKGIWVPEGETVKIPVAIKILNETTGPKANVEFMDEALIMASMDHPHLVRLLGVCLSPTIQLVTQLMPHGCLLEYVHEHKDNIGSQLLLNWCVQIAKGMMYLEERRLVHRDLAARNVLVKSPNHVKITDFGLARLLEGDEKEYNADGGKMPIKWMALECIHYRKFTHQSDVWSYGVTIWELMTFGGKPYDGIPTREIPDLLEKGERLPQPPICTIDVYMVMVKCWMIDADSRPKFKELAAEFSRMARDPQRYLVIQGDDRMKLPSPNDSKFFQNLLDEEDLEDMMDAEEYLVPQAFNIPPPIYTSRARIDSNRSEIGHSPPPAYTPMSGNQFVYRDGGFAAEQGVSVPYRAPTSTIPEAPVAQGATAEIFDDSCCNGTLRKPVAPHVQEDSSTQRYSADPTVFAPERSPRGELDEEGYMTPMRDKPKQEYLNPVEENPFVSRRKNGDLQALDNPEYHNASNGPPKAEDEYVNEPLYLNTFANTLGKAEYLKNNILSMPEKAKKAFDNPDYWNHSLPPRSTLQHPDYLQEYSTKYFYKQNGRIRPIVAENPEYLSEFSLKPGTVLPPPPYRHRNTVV
Sequence of FRK (P42685 whole entry): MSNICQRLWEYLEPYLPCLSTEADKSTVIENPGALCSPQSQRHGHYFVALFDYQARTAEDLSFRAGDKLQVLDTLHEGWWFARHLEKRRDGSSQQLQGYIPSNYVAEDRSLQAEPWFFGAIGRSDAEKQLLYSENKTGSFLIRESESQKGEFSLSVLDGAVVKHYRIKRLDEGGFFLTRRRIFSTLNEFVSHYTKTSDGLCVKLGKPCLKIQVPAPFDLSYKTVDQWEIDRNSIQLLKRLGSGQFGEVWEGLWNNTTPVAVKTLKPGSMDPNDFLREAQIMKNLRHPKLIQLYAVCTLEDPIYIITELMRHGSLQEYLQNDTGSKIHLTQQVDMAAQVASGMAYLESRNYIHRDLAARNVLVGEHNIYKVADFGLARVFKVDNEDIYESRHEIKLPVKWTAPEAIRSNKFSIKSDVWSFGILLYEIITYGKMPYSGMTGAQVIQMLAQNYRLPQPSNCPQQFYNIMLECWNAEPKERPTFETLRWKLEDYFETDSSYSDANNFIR

Row | pIC50 [1] | pIC50 [2] | pIC50 [3] | pIC50 [4] | pIC50 [5] | pIC50 ([6]; cell material: Lysate mix) | pIC50 ([8]; cell material: Lysate mix) | pIC50 ([9]; cell material: Lysate mix) | pIC50 ([10]; cell material: Lysate mix) | pIC50 ([7]; cell material: Lysate mix) | Structure (SMILES) | pIC50 ([7]; cell material: Jurkat cells) | pIC50 ([7]; cell material: Jurkat lysate) | pIC50 ([8]; cell material: Jurkat cells) | pIC50 ([8]; cell material: Jurkat lysate) | pIC50 ([9]; cell material: Jurkat cells) | pIC50 ([9]; cell material: Jurkat lysate) | pIC50 ([10]; cell material: Jurkat cells) | pIC50 ([10]; cell material: Jurkat lysate) | pIC50 ([6]; cell material: Jurkat cells) | pIC50 ([6]; cell material: Jurkat lysate)
1 | 5.78 | < 4.52 | < 4.52 | < 4.52 | 4.99 | 4.77 |  |  |  |  | C#CCNC(=O)c1cc(Nc2cc(C)[nH]n2)nc(N2CCN(Cc3ccc(S(=O)(=O)F)cc3)CC2)n1 |  |  |  |  |  |  |  |  |  | 
2 | 5.98 |  | < 4.52 | 5.14 | 4.96 |  | 5.29 | 5.78 | < 4.52 |  | CCNC(=O)c1cc(Nc2cc(C3CC3)[nH]n2)nc(N2CCN(Cc3ccc(S(=O)(=O)F)cc3)CC2)n1 |  |  |  |  |  |  |  |  |  | 
3 | 6.23 |  |  | < 4.52 | 5.04 | < 4.52 |  |  | 4.69 |  | CCNC(=O)c1cc(Nc2cc(C)[nH]n2)nc(N2CCN(Cc3ccc(S(=O)(=O)F)cc3)CC2)n1 |  |  |  |  |  |  |  |  |  | 

The next lines start with the molecule.

Row | Structure (SMILES) | pIC50 [1] | pIC50 [2] | pIC50 [3] | pIC50 [4] | pIC50 [5] | pIC50 ([6]; cell material: Lysate mix) | pIC50 ([8]; cell material: Lysate mix) | pIC50 ([9]; cell material: Lysate mix) | pIC50 ([10]; cell material: Lysate mix) | pIC50 ([7]; cell material: Lysate mix) | pIC50 ([7]; cell material: Jurkat cells) | pIC50 ([7]; cell material: Jurkat lysate) | pIC50 ([8]; cell material: Jurkat cells) | pIC50 ([8]; cell material: Jurkat lysate) | pIC50 ([9]; cell material: Jurkat cells) | pIC50 ([9]; cell material: Jurkat lysate) | pIC50 ([10]; cell material: Jurkat cells) | pIC50 ([10]; cell material: Jurkat lysate) | pIC50 ([6]; cell material: Jurkat cells) | pIC50 ([6]; cell material: Jurkat lysate)
4 | C#CCNC(=O)c1cc(Nc2cc(C3CC3)[nH]n2)nc(N2CCN(Cc3ccc(S(=O)(=O)F)cc3)CC2)n1 | 6.27 | < 4.52 | < 4.52 |  |  |  | 5.7 | 5.59 | < 4.52 |  | < 4.52 | < 4.52 | 5.99 | 5.36 | 5.86 | < 4.52 | 5.39 | < 4.52 | 6.28 | 5.56
5 | O=C(NCCNC(=O)c1cc(Nc2cc(C3CC3)[nH]n2)nc(N2CCN(Cc3ccc(S(=O)(=O)F)cc3)CC2)n1)OC1CC/C=C/CCC1 (configuration not stated) |  | < 4.52 | < 4.52 | < 4.52 | < 4.52 | < 4.52 | < 4.52 | < 4.52 | < 4.52 |  | < 4.52 |  | 5.78 | < 4.52 |  | < 4.52 | 4.75 | < 4.52 | 5.79 | 
6 | Cc1cc(Nc2cc(C(=O)NCCNC(=O)OC3CC/C=C/CCC3)nc(N3CCN(Cc4ccc(S(=O)(=O)F)cc4)CC3)n2)n[nH]1 (configuration not stated) | < 4.52 |  |  | < 4.52 | < 4.52 | < 4.52 | < 4.52 | < 4.52 | < 4.52 | < 4.52 |  |  |  |  |  |  |  |  |  | 
